pKi: −log10 of the molar value. Structures can show the parent of a compound that is named as a salt. Where two headings read alike, the source gives them in different places.
Experiments:
human arginase I = target: T1, human arginase I (Homo sapiens, UniProt P05089); test: Arginase inhibition, QuantiChrom colorimetric urea assay, IC50 converted to Ki; type: biochemical
T1 sequence (P05089 1-322): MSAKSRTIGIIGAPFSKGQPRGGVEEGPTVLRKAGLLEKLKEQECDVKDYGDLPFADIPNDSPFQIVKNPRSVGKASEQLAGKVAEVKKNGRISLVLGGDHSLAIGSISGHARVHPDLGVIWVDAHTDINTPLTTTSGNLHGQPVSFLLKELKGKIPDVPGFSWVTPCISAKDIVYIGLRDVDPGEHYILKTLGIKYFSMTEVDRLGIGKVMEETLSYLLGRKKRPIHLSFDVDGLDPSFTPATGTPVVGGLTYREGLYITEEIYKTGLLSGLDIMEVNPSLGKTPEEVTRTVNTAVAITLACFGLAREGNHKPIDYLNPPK
Description: (§1) For some compounds, their inhibitory potency at pH 7.5 was compared to the inhibitory potency of ABH at pH 7.5.
(§2) Quantitative determination of arginase activity was performed in a 96-well format by a colorimetric method using the QuantiChrom™ Arginase Assay Kit available from BioAssay Systems (Hayward, Calif., Catalog No. DARG-200) according to the manufacturer's protocol. Modifications were made to reagent quantities to suit the assaying of a highly purified sample.
(§3) The intensity of the color was directly proportional to the arginase activity in the sample.
(§4) The rate of urea production was measured in the presence of twelve different concentrations of each potential inhibitor compound. In a typical assay, seven different compounds were tested relative to a control inhibitor (e.g. ABH) against one enzyme (either human ArgI or human ArgII) at a particular pH (either 9.5 or 7.5). The pH of the solution was controlled using an appropriate pH buffering compound at 60 mM concentrations; for example, 60 mM glycine (pH 9.5) or 60 mM HEPES (pH 7.5). The half maximal inhibitory concentration (IC50) was determined by constructing a dose-response curve.

human arginase II = target: T2, human arginase II (Homo sapiens, UniProt P78540); test: as above; type: biochemical
T2 sequence (P78540 23-354): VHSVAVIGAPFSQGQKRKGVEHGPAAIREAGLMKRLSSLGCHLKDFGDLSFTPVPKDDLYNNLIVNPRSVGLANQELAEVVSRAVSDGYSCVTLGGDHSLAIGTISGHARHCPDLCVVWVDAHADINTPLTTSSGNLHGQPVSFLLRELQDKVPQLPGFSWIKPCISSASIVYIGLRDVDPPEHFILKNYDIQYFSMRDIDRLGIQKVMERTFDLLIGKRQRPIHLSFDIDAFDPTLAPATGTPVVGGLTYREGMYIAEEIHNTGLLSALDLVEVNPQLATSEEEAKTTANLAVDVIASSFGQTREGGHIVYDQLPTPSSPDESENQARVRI
Description: as §1, §2, §3, §4

Arg I and/or Arg II = test: pH effect: inhibitory potency at pH 7.5 compared with pH 9.5; type: biochemical, human; conditions: for increased potency for at least one isozyme: Table 2, pH 7.5 vs pH 9.5; for potency at pH 7.5 as compared to pH 9.5, arginases: both or at least one of the arginases
Description: as §1
as §4, with “curve. As IC50 values are dependent upon the measurement conditions, the IC50 values were converted to the inhibitor binding affinity (K1) using the Cheng-Prusoff equation and the affinity constant (Km) of L-arginine which was estimated with the same activity assay (see, e.g., Cheng et al., 1973, Biochem. Pharmacol. 22:3099-108).” for “curve.”

Rats = test: Myocardial ischemia-reperfusion injury, infarct size IA/AR; type: in vivo; conditions: rat, 2 hrs reperfusion
Description: Rats were intraperitoneally (IP) anesthetized to effect with pentobarbital (˜50 mg/kg), shaved and positioned in dorsal recumbence, intubated and ventilated (˜90 breaths/min, ˜2.5 mL tidal volume with 95% O2/5% CO2) with an adjustable small animal ventilator (Harvard Apparatus). Anesthesia was maintained with a continuous sodium pentobarbital infusion (to effect, ˜3 to 5 mg/kg/h, IV) until completion of the study via an indwelling catheter placed in a peripheral vein (e.g., femoral). Body temperature was continuously monitored throughout the duration of the surgical/experimental procedures via a rectal probe, and was maintained within the physiological range via a heated temperature-controlled (closed-loop) small animal surgical table/control unit (Vestavia Scientific).
Subsequently, transthoracic needle electrodes forming a single-lead ECG (e.g., lead II) were placed. Once a surgical plane of anesthesia had been reached, a femoral artery was isolated, dissected free from the surrounding tissue, and cannulated with a 2F high-fidelity micromanometer catheter (Millar Instruments). In order to record arterial/systemic pressures, this catheter was advanced towards the abdominal aorta. An in-dwelling catheter was also placed in a vein (i.e., jugular) for administration of the test article/vehicle, or stains (see below).
Finally, the animals were placed in right-lateral recumbence and the heart was exposed by a left-side thoracotomy/pericardiotomy. Ligatures were loosely placed (using a taper-point needle) around the proximal section of the left anterior descending artery (LAD). Tightening of these snares (via small pieces of polyethylene tubing) rendered a portion of myocardium temporarily ischemic.
Following surgical preparation, the animals were allowed to reach hemodynamic stability (for approximately 15 min), and baseline data was collected. It should be noted that in order to ensure experimental/data homogeneity, all animals must have satisfied the following entry criteria: heart rate >320 bpm and mean arterial pressure >80 mmHg. The anesthetic regime may be adjusted in order to ensure proper anesthesia/analgesia and to satisfy such inclusion criteria.
After hemodynamic stabilization and baseline measurements, the animals were treated with either vehicle or test article delivered as an intravenous bolus. Subsequently (approximately 15 min post-dosing), the animals were subjected to an acute 30 min ischemic insult by tightening of the LAD coronary artery snare. Myocardial ischemia was visually confirmed both by the appearance of cyanotic changes in distal distributions of the LAD as well as by the onset of electrocardiographic changes. After approximately 30 min of induced ischemia, the coronary snares were released and the previously ischemic myocardium was reperfused for up to 2 hrs. Treatments were not administered during either the ischemia and/or reperfusion periods. It should also be noted that in order to minimize any possible confounding effects on indices of myocardial injury, non-self-resolving malignant arrhythmias/rhythms (e.g., ventricular tachycardia/fibrillation) developing during reperfusion were considered terminal (i.e., the experiment was terminated prematurely).
At the completion of the protocol, irreversible myocardial injury (i.e., infarction) resulting from the I/R insult was evaluated. […]

[1] = Table 2, pH 7.5, read-out: human arginase I pH 7.5, Ki assigned value
[2] = Table 2, pH 9.5, read-out: human arginase I pH 9.5, Ki assigned value
[3] = Table 2, pH 7.5, read-out: human arginase II pH 7.5, Ki assigned value
[4] = Table 2, pH 9.5, read-out: human arginase II pH 9.5, Ki assigned value
[5] = 1 mg/kg iv bolus about 15 min before 30 min ischemia
[6] = 3 mg/kg iv bolus about 15 min before 30 min ischemia
[7] = Table 3, pH 7.5, read-out: human Arginase I pH 7.5, Ki assigned value
[8] = Table 3, pH 9.5, read-out: human Arginase I pH 9.5, Ki assigned value
[9] = Table 3, pH 7.5, read-out: human Arginase II pH 7.5, Ki assigned value
[10] = Table 3, pH 9.5, read-out: human Arginase II pH 9.5, Ki assigned value

SMILES | pKi (human arginase I; [1]) | pKi (human arginase I; [2]) | pKi (human arginase II; [3]) | pKi (human arginase II; [4]) | pKi (human arginase I; [7]) | pKi (human arginase I; [8]) | pKi (human arginase II; [9]) | pKi (human arginase II; [10]) | also measured
NC(CCCCB(O)O)(CCCC1CCNCC1)C(=O)O (stereo not shown) [Comparative Example 1, reference compound] | 6.60 to 7.00 | 7.30 to 7.96 | < 6.40 | > 8.00 | – | – | – | – | increased potency for at least one isozyme (Arg I and/or Arg II): no ^b; potency at pH 7.5 as compared to pH 9.5, arginases (Arg I and/or Arg II): lower potencies
NC(CCCCB(O)O)(CCCC1CCN(Cc2ccc(Cl)c(Cl)c2)CC1)C(=O)O (stereo not shown) [Comparative Example 2, reference compound] | 6.60 to 7.00 | 7.30 to 7.96 | 6.60 to 7.00 | 7.30 to 7.96 | – | – | – | – | increased potency for at least one isozyme (Arg I and/or Arg II): no ^b; potency at pH 7.5 as compared to pH 9.5, arginases (Arg I and/or Arg II): decreased potencies
NC(CCCCB(O)O)(CCCC1CCN(Cc2ccc(F)cc2)CC1)C(=O)O (stereo not shown) [Comparative Example 3, reference compound] | 6.40 to 6.60 | 7.30 to 7.96 | 6.40 to 6.60 | 7.30 to 7.96 | – | – | – | – | increased potency for at least one isozyme (Arg I and/or Arg II): no ^b; potency at pH 7.5 as compared to pH 9.5, arginases (Arg I and/or Arg II): decreased potencies
NC(CCCCB(O)O)(CCCN1CCNCC1)C(=O)O (stereo not shown) [Comparative Example 4, 2-Amino-6-borono-2-(3-(piperazine-1-yl)propyl)hexanoic acid trifluoroacetate salt, reference compound] | 7.30 to 7.96 | 7.00 to 7.29 | < 6.40 | 7.30 to 7.96 | – | – | – | – | change of human arginase I inhibitory potency (human arginase I; pH decreased from 9.5 to 7.5): increased potency; increased potency for at least one isozyme (Arg I and/or Arg II): yes ^a
NC(CCCCB(O)O)(CCCN1CCN(Cc2ccc(Cl)c(Cl)c2)CC1)C(=O)O (stereo not shown) [Example 8] | > 8.00 | 7.30 to 7.96 | 7.30 to 7.96 | 7.30 to 7.96 | – | – | – | – | Mean IA/AR (%) (Rats; [5]): 32%; Mean IA/AR (%) (Rats; [6]): 29%
CS(=O)(=O)c1ccc(CN2CCN(CCCC(N)(CCCCB(O)O)C(=O)O)CC2)cc1 (stereo not shown) [Example 10] | – | – | – | – | > 8.00 | 7.30 to 7.96 | 7.30 to 7.96 | 7.30 to 7.96 | Mean IA/AR (%) (Rats; [5]): 24%; Mean IA/AR (%) (Rats; [6]): 22%; Mean IA/AR (%) (Rats; 10 mg/kg iv bolus about 15 min before 30 min ischemia): 17%
NC(CCCCB(O)O)(CCCN1C2CCC1CC(n1cnc3ccccc31)C2)C(=O)O (stereo not shown) [Example 102] | – | – | – | – | > 8.00 | 7.30 to 7.96 | > 8.00 | 7.30 to 7.96 | –
NC(CCCCB(O)O)(CCCN1CCC(Nc2ccccc2)CC1)C(=O)O (stereo not shown) [Example 103] | – | – | – | – | > 8.00 | 7.30 to 7.96 | > 8.00 | 7.30 to 7.96 | –
CN1CCN(CCCC(N)(CCCCB(O)O)C(=O)O)CC1 (stereo not shown) [Example 106] | – | – | – | – | 7.30 to 7.96 | 7.30 to 7.96 | 7.30 to 7.96 | 6.40 to 6.60 | –
NC(CCCCB(O)O)(CCCN1CCC(NC(=O)Nc2ccc(Cl)c(Cl)c2)C1)C(=O)O (stereo not shown) [Example 112] | – | – | – | – | > 8.00 | > 8.00 | > 8.00 | 7.30 to 7.96 | –
NC(CCCCB(O)O)(CCCN1CCC(NS(=O)(=O)c2ccc(Cl)c(Cl)c2)C1)C(=O)O (stereo not shown) [Example 114] | – | – | – | – | > 8.00 | 7.30 to 7.96 | > 8.00 | 7.30 to 7.96 | –
NC(CCCCB(O)O)(CCCn1cnc2ccccc21)C(=O)O (stereo not shown) [Example 116] | – | – | – | – | 6.40 to 6.60 | 7.30 to 7.96 | 7.30 to 7.96 | 7.30 to 7.96 | –
CN(CCCC(N)(CCCCB(O)O)C(=O)O)Cc1ccc2ccccc2c1 (stereo not shown) [Example 120] | – | – | – | – | > 8.00 | 7.30 to 7.96 | > 8.00 | > 8.00 | –
NC(CCCCB(O)O)(CCCN1CCN(C(=O)c2ccc(Cl)c(Cl)c2)CC1)C(=O)O (stereo not shown) [Example 129, 2-amino-6-borono-(3-(4-(3,4-dichlorobenzoyl)piperazine-1-yl)propyl)hexanoic acid] | – | – | – | – | 7.30 to 7.96 | 7.00 to 7.29 | 6.40 to 6.60 | 7.00 to 7.29 | selectivity for arginase I over arginase II (Arg I and/or Arg II; at pH 7.5 / lower pHs): selectivity for arginase I over arginase II

Reference: patent US9447122B2, “Arginase inhibitors and methods of use thereof” (AstraZeneca AB, priority 2010, dated 2016)
